From patent US11219636B2, “Compositions and methods for treating cancer” (priority 2015, dated 2022)

Key:
[1] = test system: p53 target genes; assay: Transcription of p53 target genes, Western blot and semi-quantitative PCR; format: cell-based, human; settings: 50 μM, 24 hours, HCT116 p53 WT cells
Method: FIGS. 14A-C are Western blot analyses of p53 (FIG. 14A), p21 (FIG. 14B) and Tubulin (FIG. 14C) of HCT116 cells after treatment with 5FU. HCT116 cells were treated with 50 μM 5FU for 24 hours. Then, total cell lysate was prepared and subjected to Western blot analysis for p53 (FIG. 14A) and p21 (FIG. 14B) analysis. Tubulin (FIG. 14C) was used as a loading control and in the analyses of both proteins for normalization.
FIGS. 15A-B depict mRNA levels of various transcripts following treatment of HCT116 cells with 5FU. HCT116 cells were treated with 50 μM 5FU for 24 hours. Then, RNA was prepared and used as a template for cDNA and semi-quantitative PCR was performed for the following transcripts: p21, Bax, Noxa, Puma, MDM2, 14-3-3o, CD95, Btg2, GADD45, and Survivin. The graph represents the quantification of mRNA levels performed using the primers listed in Table 2 in the EXAMPLES section which follows.
Further validation of endogenous p53 activation led the present inventors to test other canonical target genes. 5-FU (50 μM) was added to HCT116 p53 WT cells for 24 hours. Total cell lysate was prepared and subjected into Western blot analysis and at the same time RNA was prepared and used as a template for cDNA and semi-quantitative PCR was performed. […] In particular a tight correlation between p21 and p53 protein levels (FIGS. 14A-C).

[2] = test system: p53; assay: p53 transcription activity by GFP reporter in HCT116 cells transfected with RGC-mazE-IRES-GFP plasmid; format: cell-based, human
Method: In order to test the ability of p53 to bind to its responsive element and stimulate transcription, HCT116 cells were transfected with RGC-mazE-IRES-GFP plasmid. Since p53 is degraded in un-activated cells, the present inventors used Quercetin, a ubiquitous bioactive plant flavonoid that is able to induce p53 phosphorylation, stabilization and total p53 protein accumulation. Another widely used p53 inducer is the antimetabolite agent 5-FU. P53 transcription activity was evaluated by measuring the expression of the downstream reporter gene, GFP.

[3] = test system: HCT116 cells

Row | Structure (SMILES) | mRNA and protein of p53 target genes [1] | GFP expression ([2]; 10 μM, compared with Quercetin) | cell toxicity ([3]; even very high doses (data not shown)) | increase of GFP expression ([2]; 50 μM) | cell toxicity (cell death) ([3]; transfected HCT116 cells) [%]
1 | O=c1[nH]cc(F)c(=O)[nH]1 [5-FU] | up regulation | significantly higher expression levels of GFP | no toxicity | – | –
2 | O=c1c(O)c(-c2ccc(O)c(O)c2)oc2cc(O)cc(O)c12 [Quercetin] | – | – | – | about 10 folds | 60
